ChEMBL document CHEMBL6177952, “Exploring chloro-isoxazole compounds inspired on tetrahydrofuran neolignans as promising antileishmanial agents” (Eur J Med Chem, 2025)

What was measured:
[1] = system: Leishmania amazonensis; assay: Antileishmanial activity against leishmania amazonensis IFLA/BR/1967/PH8 promastigotes infected in mouse Peritoneal macrophage incubated for 24 hrs; type: functional, organism-based; conditions: IFLA/BR/1967/PH8, Peritoneal macrophage
[2] = Selectivity ratio of CC50 for cytotoxicity against BALB/c mouse Peritoneal macrophage assessed as inhibition of cell growth to IC50 for antileishmanial activity against leishmania amazonensis IFLA/BR/1967/PH8 promastigotes infected in mouse Peritoneal macrophage; type: toxicity, cell-based; conditions: peritoneal macrophages, read-out: Ratio CC50/IC50
[3] = system: Leishmania amazonensis; assay: Antileishmanial activity against leishmania amazonensis IFLA/BR/1967/PH8 intracellular amastigote infected in mouse Peritoneal macrophage incubated for 24 hrs; type: functional, organism-based; conditions: IFLA/BR/1967/PH8, Peritoneal macrophage
[4] = Selectivity ratio of CC50 for cytotoxicity against BALB/c mouse Peritoneal macrophage assessed as inhibition of cell growth to IC50 for antileishmanial activity against leishmania amazonensis IFLA/BR/1967/PH8 intracellular amastigote infected in mouse Peritoneal macrophage; type: toxicity, cell-based; conditions: peritoneal macrophages, read-out: Ratio CC50/IC50
[5] = Cytotoxicity against BALB/c mouse Peritoneal macrophage assessed as inhibition of cell growth incubated for 48 hrs by MTT assay; type: toxicity, cell-based; conditions: peritoneal macrophages
[6] = Mutagenicity in Salmonella typhimurium TA100 assessed as number of revertant colonies per plate at 2.5 microg/ml in presence of S9 fraction by Ames test; type: toxicity, subcellular; conditions: salmonella enterica subsp. enterica serovar typhimurium, dose 2.5 µg/ml
[7] = Mutagenicity in Salmonella typhimurium TA98 assessed as number of revertant colonies per plate at 2.5 microg/ml in presence of S9 fraction by Ames test; type: toxicity, subcellular; conditions: salmonella enterica subsp. enterica serovar typhimurium, dose 2.5 µg/ml
[8] = system: Leishmania amazonensis; assay: Antileishmanial activity against leishmania amazonensis IFLA/BR/1967/PH8 amastigote measured for 72 hrs; type: functional, organism-based; conditions: IFLA/BR/1967/PH8, 72 h
[9] = system: Leishmania amazonensis; assay: Antileishmanial activity against Leishmania amazonensis promastigotes assessed as viable apoptotic parasites at 10.4 uM incubated for 72 hrs by Annexin V/7-AAD staining based flow cytometry analysis relative to control; type: functional
[10] = system: Leishmania amazonensis; assay: Antileishmanial activity against Leishmania amazonensis promastigotes assessed as necrotic parasites at 10.4 uM incubated for 48 hrs by Annexin V/7-AAD staining based flow cytometry analysis relative to control; type: functional
[11] = system: Leishmania amazonensis; assay: Antileishmanial activity against Leishmania amazonensis promastigotes assessed as late apoptotic parasites at 10.4 uM incubated for 24 hrs by Annexin V/7-AAD staining based flow cytometry analysis relative to control; type: functional
[12] = system: Leishmania amazonensis; assay: Antileishmanial activity against Leishmania amazonensis promastigotes assessed as early apoptotic parasites at 10.4 uM incubated for 72 hrs by Annexin V/7-AAD staining based flow cytometry analysis relative to control; type: functional
[13] = system: Leishmania amazonensis; assay: Antileishmanial activity against Leishmania amazonensis promastigotes assessed as viable apoptotic parasites at 10.4 uM incubated for 48 hrs by Annexin V/7-AAD staining based flow cytometry analysis relative to control; type: functional
[14] = system: Leishmania amazonensis; assay: Antileishmanial activity against Leishmania amazonensis promastigotes assessed as late apoptotic parasites at 10.4 uM incubated for 48 hrs by Annexin V/7-AAD staining based flow cytometry analysis relative to control; type: functional
[15] = system: Leishmania amazonensis; assay: Antileishmanial activity against Leishmania amazonensis promastigotes assessed as necrotic parasites at 10.4 uM incubated for 24 hrs by Annexin V/7-AAD staining based flow cytometry analysis relative to control; type: functional
[16] = system: Leishmania amazonensis; assay: Antileishmanial activity against Leishmania amazonensis promastigotes assessed as late apoptotic parasites at 10.4 uM incubated for 72 hrs by Annexin V/7-AAD staining based flow cytometry analysis relative to control; type: functional
[17] = system: Leishmania amazonensis; assay: Antileishmanial activity against Leishmania amazonensis promastigotes assessed as viable apoptotic parasites at 10.4 uM incubated for 24 hrs by Annexin V/7-AAD staining based flow cytometry analysis relative to control; type: functional
[18] = system: Leishmania amazonensis; assay: Antileishmanial activity against Leishmania amazonensis promastigotes assessed as early apoptotic parasites at 10.4 uM incubated for 24 hrs by Annexin V/7-AAD staining based flow cytometry analysis relative to control; type: functional
[19] = system: Leishmania amazonensis; assay: Antileishmanial activity against Leishmania amazonensis promastigotes assessed as necrotic parasites at 10.4 uM incubated for 72 hrs by Annexin V/7-AAD staining based flow cytometry analysis relative to control; type: functional
[20] = system: Leishmania amazonensis; assay: Antileishmanial activity against Leishmania amazonensis promastigotes assessed as early apoptotic parasites at 10.4 uM incubated for 48 hrs by Annexin V/7-AAD staining based flow cytometry analysis relative to control; type: functional
[21] = system: Leishmania amazonensis; assay: Antileishmanial activity against leishmania amazonensis assessed as reduction in parasite growth; type: functional, organism-based
[22] = system: Leishmania amazonensis; assay: Antileishmanial activity against leishmania amazonensis infected in BALB/c mouse assessed as reduction parasite load in footpad; type: functional; set-up: scale not given: the % may be the effect or the level left
[23] = system: Leishmania amazonensis; assay: Antileishmanial activity against Leishmania amazonensis promastigotes; type: functional, organism-based
[24] = system: Leishmania amazonensis; assay: Antiparasitic activity against Leishmania amazonensis promastigotes incubated for 24 hrs; type: functional, organism-based
[25] = system: Leishmania amazonensis; assay: Potency index, ratio of pentamidine IC50 to test compound IC50 for antileishmanial activity against leishmania amazonensis IFLA/BR/1967/PH8 intracellular amastigote infected in mouse Peritoneal macrophage incubated for 24 hrs; type: functional
[26] = system: Leishmania amazonensis; assay: Antileishmanial activity against leishmania amazonensis IFLA/BR/1967/PH8 promastigotes assessed as reduction in parasite growth measured for 72 hrs; type: functional, organism-based; conditions: IFLA/BR/1967/PH8, 72 h
[27] = Mutagenicity in Salmonella typhimurium TA98 assessed as number of revertant colonies per plate at 10 microg/ml by Ames test; type: toxicity; conditions: salmonella enterica subsp. enterica serovar typhimurium; dose 10 µg/ml
[28] = system: Leishmania amazonensis; assay: Antileishmanial activity against leishmania amazonensis IFLA/BR/1967/PH8 intracellular amastigotes infected in mouse Peritoneal macrophage assessed as reduction in parasite growth measured for 24 hrs; type: functional, organism-based; conditions: IFLA/BR/1967/PH8, Peritoneal macrophage

## COc1cc(OC)cc(-c2cc(-c3cc(OC)c(OC)c(OC)c3Cl)no2)c1
[1]
  IC50: 71.5 µM
[2]
  selectivity ratio: 0.4
[3]
  IC50: 19.3 µM
[4]
  selectivity ratio: 1.5
[5]
  CC50 at 48 h: 28 µM

## Nc1ccc2cc3ccccc3cc2c1 [2-AMINOANTHRACENE]
[6]
  revertant count: 963 revertants/plate
[7]
  Activity: 231 revertants/plate

## COc1cc(OC)cc(-c2cc(-c3cc(OC)c(OC)c(OC)c3Cl)on2)c1
[1]
  IC50: 31.2 µM
[2]
  selectivity ratio: 2.6
[3]
  IC50: 7.3 µM
[4]
  selectivity ratio: 11.3
[5]
  CC50 at 48 h: 82.6 µM

## COc1cc(-c2cc(-c3ccc4c(c3)OCO4)no2)cc(OC)c1OC
[8]
  IC50: 3.3 µM

## C[C@@H]1[C@H](O)[C@@H](C)/C=C/C=C/C=C/C=C/C=C/C=C/C=C/[C@H](O[C@@H]2O[C@H](C)[C@@H](O)[C@H](N)[C@@H]2O)C[C@@H]2O[C@](O)(C[C@@H](O)C[C@@H](O)[C@H](O)CC[C@@H](O)C[C@@H](O)CC(=O)O[C@H]1C)C[C@H](O)[C@H]2C(=O)O [AMPHOTERICIN B]
[9]
  Activity: 95.1%
[10]
  Activity: 0.6%
[11]
  Activity: 0.3%
[1]
  IC50: 10.4 µM
[12]
  Activity: 0.8%
[13]
  Activity: 97.1%
[14]
  Activity: 0.6%
[3]
  IC50: 2 µM
[15]
  Activity: 0.3%
[16]
  Activity: 1.5%
[17]
  Activity: 98.7%
[18]
  Activity: 0.6%
[19]
  Activity: 2.5%
[5]
  CC50 at 48 h: 12.8 µM
[20]
  Activity: 1.6%

## COc1ccc(-c2cc(-c3cc(OC)c(OC)c(OC)c3)on2)cc1OC
[21]
  IC50: 20.2 µM
[3]
  IC50: 1.6 µM
[22]
  Activity: 98.5%
[4]
  selectivity ratio: 21

## COc1ccc(-c2cc(-c3cc(OC)c(OC)c(OC)c3)no2)cc1OC
[23]
  IC50: 19.4 µM

## COc1ccc(-c2cc(-c3cc(OC)c(OC)c(OC)c3Cl)no2)cc1OC
[1]
  IC50: 88 µM
[2]
  selectivity ratio: 0.3
[3]
  IC50: 31.7 µM
[4]
  selectivity ratio: 0.8
[5]
  CC50 at 48 h: 26.7 µM

## COc1ccc(-c2cc(-c3cc(OC)c(OC)c(OC)c3Cl)on2)cc1
[1]
  IC50: 45.8 µM
[2]
  selectivity ratio: 1.3
[3]
  IC50: 12.5 µM
[4]
  selectivity ratio: 4.9
[5]
  CC50 at 48 h: 60.7 µM

## COc1cc(-c2cc(-c3cc(OC)c(OC)c(OC)c3Cl)on2)cc(OC)c1OC
[1]
  IC50: 33.8 µM
[2]
  selectivity ratio: 0.07
[3]
  IC50: 12.7 µM
[4]
  selectivity ratio: 0.2
[5]
  CC50 at 48 h: 2.7 µM

## COc1ccc(-c2cn(-c3cc(OC)c(OC)c(OC)c3)nn2)cc1OC
[23]
  IC50: 194 µM

## COc1cc(-c2cc(-c3cc(OC)c(OC)c(OC)c3)on2)cc(OC)c1OC
[24]
  IC50: 17.6 µM

## N=C(N)c1ccc(OCCCCCOc2ccc(C(=N)N)cc2)cc1 [PENTAMIDINE]
[1]
  IC50: 1.3 µM
[2]
  selectivity ratio: 17.8
[3]
  IC50: 16.3 µM
[4]
  selectivity ratio: 1.4
[5]
  CC50 at 48 h: 23.2 µM

## COc1ccc(-c2cc(-c3cc(OC)c(OC)c(OC)c3Cl)on2)cc1OC
[1]
  IC50: 91.8 µM
[2]
  selectivity ratio: 0.5
[3]
  IC50: 11.4 µM
[4]
  selectivity ratio: 4.1
[5]
  CC50 at 48 h: 47.2 µM

## COc1cccc2c1C(=O)c1c(O)c3c(c(O)c1C2=O)C[C@@](O)(C(=O)CO)C[C@@H]3O[C@H]1C[C@H](N)[C@H](O)[C@H](C)O1 [DOXORUBICIN]
[5]
  CC50 at 48 h: 2.4 µM

## COc1cc(-c2cc(-c3ccc4c(c3)OCO4)no2)c(Cl)c(OC)c1OC
[1]
  IC50: 103 µM
[2]
  selectivity ratio: 0.3
[3]
  IC50: 10.3 µM
[25]
  Ratio IC50: <=7
[4]
  selectivity ratio: 3.3
[5]
  CC50 at 48 h: 33.7 µM

## COc1cc(-n2cc(-c3ccc4c(c3)OCO4)nn2)cc(OC)c1OC
[1]
  IC50: 12 µM
[2]
  selectivity ratio: 1.9
[3]
  IC50: 23.4 µM
[26]
  IC50: 7.2 µM
[4]
  selectivity ratio: 1
[5]
  CC50 at 48 h: 23.5 µM

## COc1cc(-c2cc(-c3cc(OC)c(OC)c(OC)c3Cl)no2)cc(OC)c1OC
[1]
  IC50: 74.4 µM
[2]
  selectivity ratio: 0.1
[3]
  IC50: 21.8 µM
[4]
  selectivity ratio: 0.3
[5]
  CC50 at 48 h: 7 µM

## Nc1ccc([N+](=O)[O-])cc1N
[27]
  Activity: 253 µg

## COc1ccc(-c2cc(-c3cc(OC)c(OC)c(OC)c3Cl)no2)cc1
[1]
  IC50: 9 µM
[2]
  selectivity ratio: 1
[3]
  IC50: 10.9 µM
[4]
  selectivity ratio: 0.8
[5]
  CC50 at 48 h: 9.6 µM

## COc1ccc(-n2cc(-c3cc(OC)c(OC)c(OC)c3)nn2)cc1OC
[23]
  IC50: 122 µM
[28]
  IC50: 122 µM

## COc1cc(-c2cn(-c3cc(OC)c(OC)c(OC)c3)nn2)cc(OC)c1OC
[24]
  IC50: > 200 µM
